Molecules are shown by their SMILES.

The subject of one series is Huh-7 xenograft tumor. Put plainly: Huh-7 xenograft with SC-59 or sorafenib and radiation. It is filed as in vivo, mice. On the procedure:
(A) The effects of SC-59 and radiation on tumor growth. Each mouse was inoculated subcutaneously in the right leg with […] Huh-7 cells suspended in Matrigel. When the tumor reached a volume of 400-600 mm3, mice received vehicle, 5 Gy radiation (one fraction per day) for 4 days, or 10 mg/kg SC-59 p.o. once daily, or a combination for the duration of the study. The data points indicate the mean values (n=6) and the bars indicate the standard error. There were significant differences between the combined treatment group and the vehicle control group (*, P<0.05, **, P<0.01). (B) Left, the expression of P-STAT3 in the Huh-7 tumors was analyzed by western blot. Right, quantified data for p-STAT3 to STAT3. (C) The activity of SHP-1 in Huh-7 tumors. Values are means±SD, *, P<0.05. (D) Body weight of mice after SC-59 and RT treatment. […] The data points indicate the mean values (n=6) and the bars indicate the standard error. […] (H) Body weight of mice treated with vehicle, RT, sorafenib, and combination.
To further elucidate the molecular events responsible for this synergistic effect, we examined the expression level of p-STAT3 in the tumor extract.

For a further series, the target named is SHP-1 (Homo sapiens, UniProt P29350). Put plainly: SHP-1 activity in treated HCC cells (tyrosine phosphatase assay kit). It is filed as cell-based. The arrangement: endogenous in cells. The conditions noted are these: SK-Hep1 cells. The text has this:
The RediPlate 96 EnzChek® Tyrosine Phosphatase Assay Kit (R-22067) was used for SHP-1 activity assay (Molecular Probes, Carlsbad, Calif.). The Raf-1 kinase cascade assay kit (Upstate-Millipore, Billerica, Mass.) was used to examine the Raf-1 kinase activity. The JAK2 kinase activity kit was purchased from Reaction Biology Corp. (Malvern, Pa.).

The subject of series [1] is p-STAT3, cyclin D1, survivin, Mc1-1. The series can be described thus: Western blot of STAT3-related proteins in HCC cells. It is filed as cell-based. The conditions noted are these: HCC cells, 24 h. On the procedure: Cells were treated with various compounds at 5 and 10 μM for 24 h. Cell lysates were analyzed by western blot.
HCC cells treated with SC-43 (10 μM for 24 h) were collected with RIPA lysis buffer. Antibodies for immunoblotting such as cyclin D1 was purchased from Santa Cruz Biotechnology. Other antibodies such as survivin, phospho-STAT3 (Tyr705), STAT3, Mc1-1, SOCS1, and SOCS3 were from Cell Signaling.

SHP-1, sequence (P29350 whole entry): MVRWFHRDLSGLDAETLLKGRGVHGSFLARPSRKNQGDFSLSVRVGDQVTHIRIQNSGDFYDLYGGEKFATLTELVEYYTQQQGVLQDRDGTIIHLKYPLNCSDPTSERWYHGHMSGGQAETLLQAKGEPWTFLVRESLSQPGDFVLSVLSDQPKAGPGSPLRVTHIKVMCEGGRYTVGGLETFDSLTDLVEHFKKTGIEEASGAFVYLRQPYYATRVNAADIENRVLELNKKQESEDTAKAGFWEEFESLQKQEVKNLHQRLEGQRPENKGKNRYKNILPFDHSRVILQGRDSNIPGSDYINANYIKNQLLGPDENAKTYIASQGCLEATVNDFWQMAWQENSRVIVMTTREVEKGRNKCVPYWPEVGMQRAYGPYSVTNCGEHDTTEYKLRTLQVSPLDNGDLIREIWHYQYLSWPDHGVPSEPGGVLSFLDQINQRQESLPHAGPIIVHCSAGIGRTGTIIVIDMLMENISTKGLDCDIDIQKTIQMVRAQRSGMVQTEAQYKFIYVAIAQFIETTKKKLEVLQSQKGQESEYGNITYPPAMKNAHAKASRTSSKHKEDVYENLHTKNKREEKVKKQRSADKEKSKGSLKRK

Turning to `Cc1ccc(NC(=O)Nc2ccc(Cl)c(C(F)(F)F)c2)cc1Oc1ccc(C#N)cc1` [SC-59, 1-(4-chloro-3-(trifluoromethyl)phenyl)-3-(3-(4-cyanophenoxy)-4-methylphenyl) urea], the “tumor growth with radiotherapy combination” value in the series on Huh-7 xenograft tumor (10 mg/kg p.o. once daily plus 5 Gy radiation for 4 days) is given as “displayed significant tumor growth inhibition compared to radiotherapy or SC-59 alone”. Moreover, in the series on Huh-7 xenograft tumor (Huh-7 tumors, 10 mg/kg p.o.), the “SHP-1 phosphatase activity in tumor samples” value is “induction of SHP-1 phosphatase activity was observed” and the “p-STAT3 in treated tumor samples” value is given as “resulted in clear inhibition of p-STAT3”. The body weight result in the series with Huh-7 xenograft tumor (Huh-7 xenograft, 10 mg/kg p.o.) is “no significant difference in body weight”. In addition, the “phosphatase activity of SHP-1 in cells” value at SHP-1 is on record as “significantly increased the phosphatase activity of SHP-1 in SK-Hep1 cells”. The “p-STAT3 and STAT3-related proteins (Western blot)” value in series [1] is “downregulated phospho-STAT3 (p-STAT3) at tyrosine 705 along with its downstream molecules”.

(Values after patent US9090617B1, “Agonists of Src homology-2 containing protein tyrosine phosphatase-1 and treatment methods using the same” (National Taiwan University, priority 2011, dated 2015).)
